# Source: paper PMC7044277 (Nature Communications, 2020)
# Where “and” joins values, the source holds several entries; their conditions need not be identical. Identical values can stand only once.
# Columns and labels:
# [1] = molecular target: T1, DRD4 (D4.4 variant) wild-type (Homo sapiens, UniProt P21917); assay: Radioligand competition binding, [3H]-N-methylspiperone; conditions: DRD4; [3H]-methylspiperone (0.8-1.0 nM); read-out: Ki
# T1 sequence (P21917 1-419): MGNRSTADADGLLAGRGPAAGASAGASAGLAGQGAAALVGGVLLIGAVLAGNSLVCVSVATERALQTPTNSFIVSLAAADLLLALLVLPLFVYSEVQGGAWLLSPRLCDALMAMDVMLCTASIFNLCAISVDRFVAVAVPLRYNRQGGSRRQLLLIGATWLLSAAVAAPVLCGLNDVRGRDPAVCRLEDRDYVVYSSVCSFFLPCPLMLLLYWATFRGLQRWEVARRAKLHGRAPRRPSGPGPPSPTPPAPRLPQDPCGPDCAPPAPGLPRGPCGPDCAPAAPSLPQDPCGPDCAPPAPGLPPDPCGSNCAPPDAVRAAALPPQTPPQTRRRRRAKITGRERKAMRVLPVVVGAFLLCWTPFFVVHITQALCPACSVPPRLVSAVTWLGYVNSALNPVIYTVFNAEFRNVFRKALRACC
# DRD3 = DRD3 (Homo sapiens, UniProt P35462); assay: Gαi/o-mediated cAMP inhibition (GloSensor); assay type: cell-based; conditions: DRD3, cAMP inhibition
# DRD2 F1103.28L = molecular target: T2, DRD2 F1103.28L (Homo sapiens, UniProt P14416, F110L); assay: β-arrestin2 recruitment (Tango), mutant; assay type: cell-based
# T2 construct: expressed in transfected cells; host or cells: HEK293T (ATCC CRL-11268)
# 5HT1A = molecular target: T3, 5HT1A (Homo sapiens, UniProt P08908); assay: β-arrestin2 recruitment (Tango); assay type: cell-based; conditions: Fig_S10f, single replicates
# T3 construct: expressed in transfected cells; host or cells: HTLA cells expressing TEV-fused β-arrestin2
# T3 sequence (P08908 1-422): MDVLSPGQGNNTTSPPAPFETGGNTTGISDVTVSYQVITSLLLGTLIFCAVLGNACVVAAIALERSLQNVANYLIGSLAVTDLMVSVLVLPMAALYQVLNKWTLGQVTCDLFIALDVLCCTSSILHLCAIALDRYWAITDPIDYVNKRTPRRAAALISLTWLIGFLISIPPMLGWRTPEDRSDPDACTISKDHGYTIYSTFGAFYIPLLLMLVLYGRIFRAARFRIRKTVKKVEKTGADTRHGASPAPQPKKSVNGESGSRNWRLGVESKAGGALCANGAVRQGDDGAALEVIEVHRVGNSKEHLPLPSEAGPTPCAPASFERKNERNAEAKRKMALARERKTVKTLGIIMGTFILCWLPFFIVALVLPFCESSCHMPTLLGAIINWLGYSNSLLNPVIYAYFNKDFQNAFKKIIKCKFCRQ
# 5HT1E = 5HT1E (Homo sapiens, UniProt P28566); assay: β-arrestin2 recruitment (Tango); assay type: cell-based; conditions: Fig_S10i
# 5HT2A = 5HT2A (Homo sapiens, UniProt P28223); assay: β-arrestin2 recruitment (Tango); assay type: cell-based; conditions: single replicate values
# [2] = read-out: Emax relative to quinpirole response
# Sequence of 5HT2A (P28223 whole entry): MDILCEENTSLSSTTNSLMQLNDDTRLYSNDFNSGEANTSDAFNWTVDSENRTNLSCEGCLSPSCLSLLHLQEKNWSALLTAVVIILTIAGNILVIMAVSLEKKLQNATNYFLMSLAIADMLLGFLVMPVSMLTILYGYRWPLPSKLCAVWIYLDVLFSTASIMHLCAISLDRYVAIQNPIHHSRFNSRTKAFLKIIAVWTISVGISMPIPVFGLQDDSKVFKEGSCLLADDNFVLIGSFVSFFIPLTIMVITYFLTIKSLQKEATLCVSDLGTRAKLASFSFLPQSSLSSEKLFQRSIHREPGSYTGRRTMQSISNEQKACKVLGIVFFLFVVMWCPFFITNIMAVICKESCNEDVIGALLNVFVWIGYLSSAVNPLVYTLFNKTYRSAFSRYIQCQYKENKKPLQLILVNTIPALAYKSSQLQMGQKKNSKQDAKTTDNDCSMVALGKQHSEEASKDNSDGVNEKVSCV
# Sequence of 5HT1E (P28566 whole entry): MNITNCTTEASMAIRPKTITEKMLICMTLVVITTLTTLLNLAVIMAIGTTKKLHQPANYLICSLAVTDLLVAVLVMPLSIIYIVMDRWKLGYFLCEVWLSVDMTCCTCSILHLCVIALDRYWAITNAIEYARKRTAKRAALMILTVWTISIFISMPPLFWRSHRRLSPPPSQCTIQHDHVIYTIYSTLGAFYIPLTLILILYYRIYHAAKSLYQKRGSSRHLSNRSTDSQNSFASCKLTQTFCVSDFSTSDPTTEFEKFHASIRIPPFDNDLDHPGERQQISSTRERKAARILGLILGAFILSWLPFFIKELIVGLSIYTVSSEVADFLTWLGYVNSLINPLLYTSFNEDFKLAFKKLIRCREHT
# Sequence of DRD3 (P35462 whole entry): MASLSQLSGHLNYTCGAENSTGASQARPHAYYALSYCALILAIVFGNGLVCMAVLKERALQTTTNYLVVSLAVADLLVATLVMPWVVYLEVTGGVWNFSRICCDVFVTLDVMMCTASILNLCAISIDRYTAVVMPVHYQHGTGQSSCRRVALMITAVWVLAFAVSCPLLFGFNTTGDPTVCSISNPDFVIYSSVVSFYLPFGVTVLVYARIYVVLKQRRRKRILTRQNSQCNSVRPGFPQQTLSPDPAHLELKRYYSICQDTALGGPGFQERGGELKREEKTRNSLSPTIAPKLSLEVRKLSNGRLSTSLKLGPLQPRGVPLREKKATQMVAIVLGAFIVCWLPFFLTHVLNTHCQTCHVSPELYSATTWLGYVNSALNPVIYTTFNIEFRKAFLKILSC
# T2 sequence (P14416 whole entry F110L): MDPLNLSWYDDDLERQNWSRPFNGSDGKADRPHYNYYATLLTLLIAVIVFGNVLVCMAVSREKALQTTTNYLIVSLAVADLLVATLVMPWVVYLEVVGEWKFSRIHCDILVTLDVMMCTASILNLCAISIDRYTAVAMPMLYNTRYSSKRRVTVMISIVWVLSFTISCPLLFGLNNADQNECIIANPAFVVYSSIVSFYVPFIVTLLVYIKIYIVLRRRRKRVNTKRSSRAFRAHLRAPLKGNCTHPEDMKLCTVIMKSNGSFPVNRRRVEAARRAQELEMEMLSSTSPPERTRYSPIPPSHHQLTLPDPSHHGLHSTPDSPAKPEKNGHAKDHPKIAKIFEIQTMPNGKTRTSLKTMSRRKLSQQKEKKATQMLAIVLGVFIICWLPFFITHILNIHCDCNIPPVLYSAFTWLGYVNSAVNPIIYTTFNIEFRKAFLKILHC
structure (smiles),measurement,setting,value
CCOc1cccc2cc([C@@H](C)NCC3(O)CCCCC3)oc12 [O4RE6],Ki,[1],> 10000 nM
same,EC50,"DRD3; agonist, read-out: EC50 ± SEM",7.12 ± 0.08 nM
same,G protein agonist activity,DRD3,partial agonist
same,Emax,DRD3; [2],52.4%
same,EC50,DRD2 F1103.28L,215 nM
same,Emax,DRD2 F1103.28L; [2],7.76%
same,"β-arrestin2 recruitment response, agonist mode (normalized)",5HT1A; Log[Drug] -9.52,-0.3383 and -0.3342 and -0.9983 and -0.221 and -0.03249 and 2.194 and -0.4129 and -0.6658 and 0.08323
same,"β-arrestin2 recruitment response, agonist mode (normalized)",5HT1A; Log[Drug] -10,-0.1671 and -0.3383 and -0.5054 and -0.1386 and -0.3173 and 2.583 and 0.605 and 2.666 and 1.376
same,"β-arrestin2 recruitment response, agonist mode (normalized)",5HT1A; Log[Drug] -10.52,0 and 0.5013 and 0.1546 and 0.5578 and -0.1419 and 1.096 and 1.898 and -0.4417 and 0.06082
same,"β-arrestin2 recruitment response, agonist mode (normalized)",5HT1A; Log[Drug] -11,-0.5138 and -0.6767 and 1.165 and 0.7257 and 0.3249 and 3.762 and 0.9795 and 5.224 and 0.4673
same,"β-arrestin2 recruitment response, agonist mode (normalized)",5HT1A; Log[Drug] -11.52,1.8254 and -0.1796 and 0.1546 and 0.208 and -0.007582 and -0.4495 and -0.8035 and 0.7362 and -0.4065
same,"β-arrestin2 recruitment response, agonist mode (normalized)",5HT1A; Log[Drug] -12,-0.1713 and 0.3383 and -0.1671 and 0.2155 and 0.391 and -0.6055 and 0.7554 and -0.4001 and 0.1248
same,"β-arrestin2 recruitment response, agonist mode (single replicate values)",5HT1E; Log[Drug] -5.52,-0.8838
same,"β-arrestin2 recruitment response, agonist mode (single replicate values)",5HT1E; Log[Drug] -6,5.169 and -3.421 and -7.045 and -2.335 and -9.923 and 2.004 and -14.6813 and -14.4526 and -10.0186
same,"β-arrestin2 recruitment response, agonist mode (single replicate values)",5HT1E; Log[Drug] -6.52,5.136 and -8.797 and -1.582 and 6.94 and -5.772 and 9.5977 and -9.147 and -14.4969 and -14.6019
same,"β-arrestin2 recruitment response, agonist mode (single replicate values)",5HT1E; Log[Drug] -7,-9.403 and -3.356 and -7.031 and 6.361 and -8.019 and 5.611 and -6.317 and -9.482 and -17.1569
same,"β-arrestin2 recruitment response, agonist mode (single replicate values)",5HT1E; Log[Drug] -7.52,-7.7314 and -4.654 and -9.0776 and 5.71 and 2.776 and -4.782 and -16.2446 and -11.396 and -8.341
same,"β-arrestin2 recruitment response, agonist mode (single replicate values)",5HT1E; Log[Drug] -8,-0.303 and 2.682 and 0.8105 and -16.5035 and -1.474 and 1.2682 and -16.075 and -2.697 and -15.9171
same,"β-arrestin2 recruitment response, agonist mode (single replicate values)",5HT1E; Log[Drug] -8.52,-6.877 and -0.9842 and -10.6793 and 4.799 and 9.189 and -4.891 and 2.59 and -7.1 and -6.491
same,"β-arrestin2 recruitment response, agonist mode (single replicate values)",5HT1E; Log[Drug] -9,-3.28 and 6.173 and 0.4053 and -14.2337 and -0.6567 and 5.487 and -22.7397 and -14.6836 and -5.277
same,"β-arrestin2 recruitment response, agonist mode (single replicate values)",5HT1E; Log[Drug] -9.52,-0.2537 and -8.594 and -3.456 and -0.4529 and -8.792 and -9.322 and -17.3288 and -4.524 and -7.744
same,"β-arrestin2 recruitment response, agonist mode (single replicate values)",5HT1E; Log[Drug] -10,-3.52 and -2.38 and 3.183 and -31.9257 and 29.8123 and -9.337 and -10.0295 and -4.283 and -12.1769
same,"β-arrestin2 recruitment response, agonist mode (single replicate values)",5HT1E; Log[Drug] -10.52,0.1347 and 0.5117 and -4.0638 and -13.472 and -7.0659 and -13.7571 and -9.427 and -7.368 and -17.0465
same,"β-arrestin2 recruitment response, agonist mode (single replicate values)",5HT1E; Log[Drug] -11,7.882 and 2.36 and 5.579 and -8.103 and -1.831 and -9.017 and -8.127 and -1.8482 and -12.9803
same,"Fig_S10k dose-response, drug alone (agonist mode), β-arrestin2 recruitment",5HT2A; Log[Drug] -6.52,-0.1908
same,"Fig_S10k dose-response, drug alone (agonist mode), β-arrestin2 recruitment",5HT2A; Log[Drug] -7,0.697 and 0.4035 and 0.09538 and 0.6532 and -1.18 and 3.874 and 0.7119 and 4.575 and 2.4436
same,"Fig_S10k dose-response, drug alone (agonist mode), β-arrestin2 recruitment",5HT2A; Log[Drug] -7.52,0.4035 and -0.7777 and -0.1834 and -1.703 and -0.8871 and -1.1926 and 2.795 and 3.208 and 1.294
same,"Fig_S10k dose-response, drug alone (agonist mode), β-arrestin2 recruitment",5HT2A; Log[Drug] -8,1.5774 and 2.458 and -0.4916 and -0.4094 and -2.089 and 0.5329 and 11.4772 and 3.9492 and 2.4436
same,"Fig_S10k dose-response, drug alone (agonist mode), β-arrestin2 recruitment",5HT2A; Log[Drug] -8.52,-0.8437 and 0.3668 and 0.9905 and -1.355 and 3.003 and -0.7312 and 3.002 and 2.824 and 3.026
same,"Fig_S10k dose-response, drug alone (agonist mode), β-arrestin2 recruitment",5HT2A; Log[Drug] -9,16.8085 and 6.2069 and -0.2128 and 11.6986 and 0.5297 and -1.349 and 1.8808 and 2.833 and 2.6312
same,"Fig_S10k dose-response, drug alone (agonist mode), β-arrestin2 recruitment",5HT2A; Log[Drug] -9.52,-0.5503 and 0.3742 (2×) and -0.2437 and 18.2855 and 12.0983 and 1.862 and 3.213 and 3.608
same,"Fig_S10k dose-response, drug alone (agonist mode), β-arrestin2 recruitment",5HT2A; Log[Drug] -10,0.4035 and 2.4358 and 3.331 and 0.1365 and -1.683 and 9.281 and 2.751 and 3.406 and 1.477
same,"Fig_S10k dose-response, drug alone (agonist mode), β-arrestin2 recruitment",5HT2A; Log[Drug] -10.52,-0.4916 and 0.9758 and -0.7997 and 1.29 and 4.65 and 10.4637 and 6.306 and 3.973 and 2.054
